Paper PMC4823786, “Redirection of pyruvate flux toward desired metabolic pathways through substrate channeling between pyruvate kinase and pyruvate-converting enzymes in Saccharomyces cerevisiae” (Scientific Reports, 2016)

Molecular target: T1, His6-LdhA (Leuconostoc mesenteroides, UniProt Q03VC9)
T1 construct: gene LEUM_1756; N-terminal His6 tag (pET28b), expressed in E. coli Rogetta gami2 (DE3) pLysS, Ni-NTA purified
Test: NADH oxidation monitored at […] nm
Assay type: biochemical
Conditions: 10 mM sodium pyruvate, 0.2 mM β-NADH, 50 mM Tris-HCl pH 7.0

T1 sequence (Q03VC9 entry or part of it): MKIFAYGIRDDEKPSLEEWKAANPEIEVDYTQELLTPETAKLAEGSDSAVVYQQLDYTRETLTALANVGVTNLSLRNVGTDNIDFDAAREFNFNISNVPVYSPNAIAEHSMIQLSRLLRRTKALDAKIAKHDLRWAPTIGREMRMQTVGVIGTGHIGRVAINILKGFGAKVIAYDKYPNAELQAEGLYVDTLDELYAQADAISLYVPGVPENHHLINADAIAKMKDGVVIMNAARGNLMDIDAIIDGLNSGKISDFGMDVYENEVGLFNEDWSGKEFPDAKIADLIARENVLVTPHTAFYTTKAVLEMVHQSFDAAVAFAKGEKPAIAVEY

## NC(=O)C1=CN([C@@H]2O[C@H](COP(=O)(O)OP(=O)(O)OC[C@H]3O[C@@H](n4cnc5c(N)ncnc54)[C@H](O)[C@@H]3O)[C@@H](O)[C@H]2O)C=CC1 [NADH]
  NADH oxidation monitored at 340 nm: reduction of pyruvate to lactate was monitored by measuring the oxidation rate of NADH

## CC(=O)C(=O)O [pyruvate]
  NADH oxidation monitored at 340 nm: reduction of pyruvate to lactate was monitored by measuring the oxidation rate of NADH
